Assay results: patent US20260285853A1, “COMPOUNDS AND METHODS FOR MODULATING SPLICING” (REMIX THERAPEUTICS INC., priority 2023, published 2026)

Tests used:
Type in all cases: cell-based
[1] = test system: SH-SY5Y (human neuroblastoma) cells; test: Cell viability, Cell Titer Glo 2.0 assay; details: read-out: Viability SHSY5Y.3 GI50
How it was run: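 Viability was read by CellTiter-Glo 2.0 luminescence after a 72-hour compound exposure at 37° C. under 5% CO2. Cells were in IMDM plus 10% FBS containing 0.1% DMSO, and medium-only wells gave the blank.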

HTT mRNA [2] = test: Splicing RT-qPCR assay (THP), Table 2A; details: Table 2A, THP; for AC50: HTT alternative junction (AJ) mRNA, read-out: HTT AJ (AC50, increase in alternative junction mRNA); for IC50: HTT canonical junction (CJ) mRNA, read-out: HTT CJ (IC50, decrease in canonical junction mRNA)
HTT mRNA [3] = test: Gene panel canonical junction qPCR assay, decrease in CJ mRNA, Table 3; details: decrease in CJ mRNA levels, canonical junction qPCR, gene panel
How it was run: (§1)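 IC50 denotes the concentration giving 50% decrease in canonical-junction mRNA, fitted by 4-parameter logistic to percentage response derived from ΔΔCt versus housekeeping gene and DMSO control. Cells (A673 or K562) exposed 24 h to 11-point 3-fold serial dilutions from 10 uM top, DMSO ≤0.25%; junction-spanning primer/probe qPCR.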

MYB mRNA [4] = test: as above; details: decrease in CJ mRNA levels, canonical junction qPCR, gene panel
How it was run: as §1

MYB mRNA [5] = test: Splicing RT-qPCR assay (THP), Table 2A; details: Table 2A, THP; for AC50: MYB alternative junction (AJ) mRNA, read-out: MYB AJ (AC50, increase in alternative junction mRNA); for IC50: MYB canonical junction (CJ) mRNA, read-out: MYB CJ (IC50, decrease in canonical junction mRNA)

SMILES	GI50 [1]	AC50 (HTT mRNA [2])	IC50 (HTT mRNA [2])	IC50 (HTT mRNA [3])	IC50 (MYB mRNA [4])	AC50 (MYB mRNA [5])	IC50 (MYB mRNA [5])
Cc1cn2nc(NC(=O)c3c(F)cc(N4CCC(NC5CC5)CC4)c4nc(C)sc34)cc(C)c2n1 [Compound 665, 4-[4-(cyclopropyl-amino)-1-piperidyl]-N-(2,8-dimethylimidazo[1,2-b]-pyridazin-6-yl)-6-fluoro-2-methyl-1,3-benzothiazole-7-carboxamide]	100 to 1000 nM	100 to 1000 nM	100 to 1000 nM	100 to 1000 nM	100 to 1000 nM	100 to 1000 nM	100 to 1000 nM
COc1nc2c(N3CCC(NC4CC4)CC3)ccc(C(=O)Nc3cc(F)c4nc(C)cn4c3)c2o1 [Compound 666, 4-[4-(cyclopropylamino)-1-piperidyl]-N-(8-fluoro-2-methyl-imidazo[1,2-a]-pyridin-6-yl)-2-methoxy-1,3-benzoxazole-7-carboxamide]	1000 to 10000 nM	1000 to 10000 nM	1000 to 10000 nM	1000 to 10000 nM	100 to 1000 nM	100 to 1000 nM	100 to 1000 nM
COc1nc2c(C(=O)Nc3cn4cc(C)nc(C)c4n3)ccc(N3CCC(NC4CC4)CC3)c2s1 [Compound 667, 7-(4-(cyclopropylamino)-piperidin-1-yl)-N-(6,8-dimethylimidazo[1,2-a]pyrazin-2-yl)-2-methoxy-benzo[d]thiazole-4-carboxamide 2,2,2-trifluoroacetate]	1000 to 10000 nM	> 10000 nM	> 10000 nM	> 10000 nM	> 10000 nM	1000 to 10000 nM	> 10000 nM
COc1nc2c(C(=O)Nc3cc4cn(C)nc4cc3OC)ccc(N3CCC(NC4CC4)CC3)c2s1 [Compound 668, 7-(4-(cyclopropylamino)-piperidin-1-yl)-2-methoxy-N-(6-methoxy-2-methyl-2H-indazol-5-yl)benzo[d]-thiazole-4-carboxamide 2,2,2-trifluoroacetate]	100 to 1000 nM	1000 to 10000 nM	1000 to 10000 nM	1000 to 10000 nM	100 to 1000 nM	100 to 1000 nM	100 to 1000 nM
CCNC1CCN(c2ccc(C(=O)Nc3cc4cn(C)nc4cc3OC)c3nc(OC)sc23)CC1 [Compound 669, 7-[4-(ethylamino)-1-piperidyl]-2-methoxy-N-(6-methoxy-2-methyl-indazol-5-yl)-1,3-benzo-thiazole-4-carboxamide]	1000 to 10000 nM	1000 to 10000 nM	1000 to 10000 nM	1000 to 10000 nM	1000 to 10000 nM	100 to 1000 nM	1000 to 10000 nM
CCNC1CCN(c2ccc(C(=O)Nc3cn4cc(C)nc(C)c4n3)c3nc(OC)sc23)CC1 [Compound 670, N-(6,8-dimethyl-imidazo[1,2-a]-pyrazin-2-yl)-7-[4-(ethylamino)-1-piperidyl]-2-methoxy-1,3-benzothiazole-4-carboxamide]	> 10000 nM	> 10000 nM	1000 to 10000 nM	1000 to 10000 nM	> 10000 nM	> 10000 nM	> 10000 nM
COc1nc2c(C(=O)Nc3cc4cn(C)nc4cc3OC)ccc(N3C[C@H](C)N[C@@H](C)C3)c2s1 [Compound 671, 7-[(3S,5S)-3,5-dimethyl-piperazin-1-yl]-2-methoxy-N-(6-methoxy-2-methyl-indazol-5-yl)-1,3-benzothiazole-4-carboxamide]	1000 to 10000 nM	1000 to 10000 nM	> 10000 nM	> 10000 nM	100 to 1000 nM	100 to 1000 nM	100 to 1000 nM
COc1nc2c(C(=O)Nc3cc(F)c4nn(C)cc4c3)ccc(N3C[C@H](C)N[C@@H](C)C3)c2s1 [Compound 675, 7-[(3S,5S)-3,5-dimethylpiperazin-1-yl]-N-(7-fluoro-2-methyl-indazol-5-yl)-2-methoxy-1,3-benzothiazole-4-carboxamide]	< 100 nM	< 100 nM	< 100 nM	< 100 nM	< 100 nM	< 100 nM	< 100 nM
COc1nc2c(N3CCC(NC4CC4)CC3)ccc(C(=O)Nc3cc4cn(C)nc4cc3OC)c2o1 [Compound 679, 4-[4-(cyclopropylamino)-1-piperidyl]-2-methoxy-N-(6-methoxy-2-methyl-indazol-5-yl)-1,3-benzoxazole-7-carboxamide]	1000 to 10000 nM	1000 to 10000 nM	1000 to 10000 nM	1000 to 10000 nM	100 to 1000 nM	< 100 nM	100 to 1000 nM
COc1nc2c(N3CCC(NC4CC4)CC3)ccc(C(=O)Nc3cn4cc(C)nc(C)c4n3)c2o1 [Compound 680, 4-(4-(cyclopropylamino)-piperidin-1-yl)-N-(6,8-dimethylimidazo-[1,2-a]-pyrazin-2-yl)-2-methoxy-benzo[d]-oxazole-7-carboxamide]	> 10000 nM	> 10000 nM	> 10000 nM	> 10000 nM	1000 to 10000 nM	1000 to 10000 nM	1000 to 10000 nM
COc1nc2c(C(=O)Nc3cc4cn(C)nc4cc3OC)ccc(N3CCC(NC4CC4)CC3)c2o1 [Compound 681, 7-[4-(cyclopropylamino)-1-piperidyl]-2-methoxy-N-(6-methoxy-2-methyl-indazol-5-yl)-1,3-benzoxazole-4-carboxamide]	100 to 1000 nM	100 to 1000 nM	100 to 1000 nM	100 to 1000 nM	100 to 1000 nM	< 100 nM	100 to 1000 nM
COc1nc2c(C(=O)Nc3cc(F)c4nn(C)cc4c3)ccc(N3C[C@H](C)N[C@@H](C)C3)c2o1 [Compound 682, 7-[(3S,5S)-3,5-dimethylpiperazin-1-yl]-N-(7-fluoro-2-methyl-indazol-5-yl)-2-methoxy-1,3-benzoxazole-4-carboxamide]	< 100 nM	100 to 1000 nM	100 to 1000 nM	100 to 1000 nM	< 100 nM	< 100 nM	< 100 nM
CCNC1C(C)CN(c2ccc(C(=O)Nc3cn4cc(C)nc(C)c4n3)c3nn(C)cc23)CC1C (stereo not shown) [Compound 686]	> 10000 nM	> 10000 nM	> 10000 nM	> 10000 nM	> 10000 nM	> 10000 nM	> 10000 nM
CCNC1C(C)CN(c2ccc(C(=O)Nc3cc4cn(C)nc4cc3OC)c3nn(C)cc23)CC1C (stereo not shown) [Compound 687]	> 10000 nM	> 10000 nM	> 10000 nM	> 10000 nM	1000 to 10000 nM	1000 to 10000 nM	1000 to 10000 nM
COc1cc2c(N3CCC(NC4CC4)CC3)ccc(C(=O)Nc3cn4cc(C)nc4c(F)c3OC)n2n1 [Compound 688, 4-[4-(cyclopropylamino)-1-piperidyl]-N-(8-fluoro-7-methoxy-2-methyl-imidazo[1,2-a]pyridin-6-yl)-2-methoxy-pyrazolo[1,5-a]pyridine-7-carboxamide]	< 100 nM	100 to 1000 nM	< 100 nM	< 100 nM	< 100 nM	< 100 nM	< 100 nM
COc1cc2c(N3CCC(NC4CC4)CC3)ccc(C(=O)Nc3cc(F)c4nc(C)cn4c3)n2n1 [Compound 689, 4-[4-(cyclopropylamino)-1-piperidyl]-N-(8-fluoro-2-methyl-imidazo[1,2-a]pyridin-6-yl)-2-methoxy-pyrazolo[1,5-a]pyridine-7-carboxamide]	< 100 nM	100 to 1000 nM	< 100 nM	< 100 nM	< 100 nM	< 100 nM	< 100 nM
